According to patent EP0937711A1, “Thiobenzamides, process for their preparation and medicaments containing them” (Roche Diagnostics GmbH, priority 1998, dated 1999):

Key:
[1] = test system: Citratplasma; assay: Activated partial thromboplastin time (APTT) in citrate plasma; type: biochemical; conditions: time as difference to control (control ca. 28-35 s); for APTT 1000: 1000 µM in final volume, stopped after 5 min (>300)
Method: (§1) Neun Teile frisches Blut gesunder Spender werden mit einem Teil Natriumcitratlösung (0.11 Mol/l) gemischt und bei ca. 3000 U/min 10 Minuten bei Raumtemperatur zentrifugiert. Das Plasma wird abpipettiert und kann bei Raumtemperatur ca. 8 h aufbewahrt werden.
100 µl Citratplasma und 100 µl APTT-Reagenz (Diagnostica Stago / Boehringer Mannheim GmbH; enthält Lyophilisat Cephalin mit mikrokristallinem Kieselguraktivator) werden zusammen mit 10 µl Dimethylsulfoxid (DMSO) oder 10 µl einer Lösung der Wirksubstanz in DMSO in einem Kugelkoagulometer (KC10 der Fa. Amelung) 3 Minuten bei 37°C inkubiert. Mit Zugabe von 100 µl 0.025 M Calciumchlorid-Lösung wird eine Stoppuhr gestartet und der Zeitpunkt bis zum Eintritt der Gerinnung bestimmt. Die APTT beträgt bei den Kontrollmessungen ca. 28 -35 Sekunden und wird durch Wirksubstanzen verlängert. Sofern bei den Messungen nach 5 Minuten keine Gerinnung eintrat, wurde der Versuch gestoppt (>300).
In Tabelle 1 sind die gemessenen APTT-Zeiten in Sekunden als Differenz zur Kontrolle angegeben. Die Konzentrationen der Wirksubstanzen betrugen im Endvolumen 1000 µM (APTT 1000), 100 µM (APTT 100), 10 µM (APTT 10), 1 µM (APTT 1).

[2] = biological target: T1, Humanes α-Thrombin (Homo sapiens, UniProt P00734); assay: Inhibition constants (Ki), chromogenic substrate S-2238, thrombin; type: biochemical; conditions: pH 7.5, 25°C, 0.1 M phosphate buffer
T1 construct: Humanes α-Thrombin; purchased Sigma
Method: (§2) Die kinetischen Messungen wurden in 0.2 M Kochsalz und 0.5 % Polyethylenglycol 6000 enthaltendem 0.1 M Phosphatpuffer (Herstellung siehe unten) bei pH 7.5 und 25°C in Polystyrol-Halbmikroküvetten in einem Gesamtvolumen von 1 mi durchgeführt. Die Reaktionen wurden durch Zugabe von Enzym zu vorinkubierten Lösungen, die entweder Dimethylsulfoxid (Kontrolle) oder Lösungen der Testsubstanz in DMSO (Inhibitor-Stocklösungen: 10 mM in DMSO) enthielten, gestartet. Die Zunahme der Extinktion bei 405 nm als Folge der Freisetzung von 4-Nitroanilin aus dem Substrat wurde photometrisch über einen Zeitraum von 12 Minuten verfolgt. Im Abstand von 20 Sekunden wurden Meßwerte (Extinktion vs. Zeit) ermittelt und diese Daten per Computer gespeichert.
(§3) Zur Bestimmung der Inhibitionskonstanten Ki wurde wie folgt vorgegangen: Die Geschwindigkeiten V0 (Extinktionsänderung pro Sekunde; Messungen ohne Inhibitor) und Vi (Extinktionsänderung pro Sekunde; Messungen mit Inhibitor) wurden durch lineare Regression bestimmt, wobei nur die Meßpunkte berücksichtigt wurden, bei der sich die Substratkonzentration um weniger als 15% verringerte. Aus einer Meßreihe (konstante Inhibitorkonzentration, variable Substratkonzentrationen) bestimmte man KM und VMAX durch nichtlinearen Fit auf die Gleichung V =(Vmax * [S])/([S] + KM) [formula] […]

[3] = biological target: T2, bovines pankreatisches Trypsin (Bos taurus, UniProt P00760); assay: Inhibition constants (Ki), chromogenic substrate S-2238, trypsin; type: biochemical, bovin; conditions: pH 7.5, 25°C, 0.1 M phosphate buffer
T2 construct: purchased Sigma; host or cells: bovine pancreas
T2 sequence (P00760 24-246): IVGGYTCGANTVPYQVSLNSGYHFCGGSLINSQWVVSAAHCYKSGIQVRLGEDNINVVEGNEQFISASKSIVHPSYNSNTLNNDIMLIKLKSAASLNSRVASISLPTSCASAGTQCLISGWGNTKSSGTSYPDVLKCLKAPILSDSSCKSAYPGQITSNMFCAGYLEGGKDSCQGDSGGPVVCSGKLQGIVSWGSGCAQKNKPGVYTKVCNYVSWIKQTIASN
Method: as §2, §3

[4] = test system: Pferdethrombin; assay: Thrombin time in citrate plasma; type: biochemical, Pferd; conditions: 500 µM in final volume; time as difference to control (control ca. 24 s)
Method: as §1
200 µl Citratplasma werden in einem Kugelkoagulometer (KC10 der Fa. Amelung) 2 Minuten bei 37°C inkubiert. Zu 190 µl vortemperiertem Thrombin-Reagenz (Boehringer Mannheim GmbH; enthält ca. 3 U/ml Pferdethrombin und 0.0125 M Ca^++ gibt man 10 µl Dimethylsulfoxid (DMSO) oder eine Lösung der Wirksubstanz in DMSO. Mit Zugabe dieser 200 µl Lösung zum Plasma wird eine Stoppuhr gestartet und der Zeitpunkt bis zum Eintritt der Gerinnung bestimmt. Die Thrombinzeit beträgt bei den Kontrollmessungen ca. 24 Sekunden und wird durch Wirksubstanzen verlängert. Sofern bei den Messungen nach 5 Minuten keine Gerinnung eintrat, wurde der Versuch gestoppt (>300).
In Tabelle 1 sind die gemessenen Thrombinzeiten in Sekunden als Differenz zur Kontrolle angegeben. Die Konzentrationen der Wirksubstanzen betrugen im Endvolumen 500 µM (TT 500).

[5] = biological target: T3, humanem Faktor Xa (Homo sapiens, UniProt P00742); assay: Inhibition constants (Ki), chromogenic substrate Chromozym X, FXa; type: biochemical; conditions: pH 7.5, 25°C, 0.1 M phosphate buffer
T3 construct: humanem Faktor Xa; purchased Boehringer Mannheim GmbH
T3 sequence (P00742 235-488 limits assumed): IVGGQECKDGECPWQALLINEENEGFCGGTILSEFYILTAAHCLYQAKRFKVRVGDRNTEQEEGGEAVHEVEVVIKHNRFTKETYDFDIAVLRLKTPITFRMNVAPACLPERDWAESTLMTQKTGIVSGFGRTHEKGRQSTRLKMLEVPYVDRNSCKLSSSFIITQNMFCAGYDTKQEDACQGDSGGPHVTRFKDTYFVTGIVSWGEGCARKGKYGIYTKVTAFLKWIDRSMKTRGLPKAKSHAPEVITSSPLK
T3 sequence (P00742 41-179 partner limits assumed): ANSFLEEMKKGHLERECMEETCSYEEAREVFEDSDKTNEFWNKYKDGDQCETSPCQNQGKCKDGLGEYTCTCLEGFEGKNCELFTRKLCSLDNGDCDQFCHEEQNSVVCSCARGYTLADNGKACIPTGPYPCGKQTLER
Method: as §2, §3

Compound	APTT 1000 [1] [s]	further results
NC(=S)c1ccc(C(=O)Nc2cc(C(=O)O)ccc2NC(=O)c2ccc3ccccc3c2)cc1 [Beispiel 2, 4-[(Naphthalin-2-carbonyl)-amino]-3-(4-thiocarbamoyl-benzoylamino)-benzoesäure]	9.4	–
NC(=S)c1ccc(C(=O)Nc2cc(C(=O)O)ccc2NS(=O)(=O)c2ccc3ccccc3c2)cc1 [Beispiel 10, 4-(Naphthalin-2-sulfonylamino)-3-(4-thiocarbamoyl-benzoylamino)-benzoesäure]	0.7	–
COc1ccc(C(=O)Nc2ccccc2NC(=O)c2ccc(C(N)=S)cc2)cc1 [Beispiel 3, 2-(4-Methoxy-benzoylamino)-1-(4-thiocarbamoyl-benzoylamino)-benzol]	157.9	Ki [2]: > 100 µM; APTT 1 ([1]; 1 µM in final volume): 2.6 s; APTT 10 ([1]; 10 µM in final volume): 8.4 s; APTT 100 ([1]; 100 µM in final volume): 32.4 s; Ki [3]: > 100 µM; TT 500 [4]: 2.4 s; Ki [5]: 0.05 µM
COC(=O)c1ccc(NC(=O)c2ccc(OC)c(OC)c2)c(NC(=O)c2ccc(C(N)=S)cc2)c1 [Beispiel 5, 4-(3,4-Dimethoxy-benzoylamino)-3-(4-thiocarbamoyl-benzoylamino)-benzoesäuremethylester]	3.5	–
COC(=O)c1ccc(NC(=O)c2ccc3ccccc3c2)c(NC(=O)c2ccc(C(N)=S)cc2)c1 [Beispiel 1, 4-[(Naphthalin-2-carbonyl)-amino]-3-(4-thiocarbamoyl-benzoylamino)-benzoesäuremethylester]	1	–
COC(=O)c1ccc(NC(=O)c2ccc(OC)cc2)c(NC(=O)c2ccc(C(N)=S)cc2)c1 [Beispiel 4, 4-(4-Methoxy-benzoylamino)-3-(4-thiocarbamoyl-benzoylamino)-benzoesäuremethylester]	65.3	–
COC(=O)c1ccc(NS(=O)(=O)c2ccc3ccccc3c2)c(NC(=O)c2ccc(C(N)=S)cc2)c1 [Beispiel 8, 4-(Naphthalin-2-sulfonylamino)-3-(4-thiocarbamoyl-benzoylamino)-benzoesäuremethylester]	-0.4	–
COC(=O)c1ccc(NC(=O)c2ccccc2C(=O)O)c(NC(=O)c2ccc(C(N)=S)cc2)c1 [Beispiel 6, 4-(2-Carboxy-benzoylamino)-3-(4-thiocarbamoyl-benzoylamino)-benzoesäuremethylester]	9.0	–
NC(=S)c1ccc(C(=O)Nc2ccccc2NC(=O)c2ccc(C(N)=S)cc2)cc1 [Beispiel 9, 1,2-Bis-(4-thiocarbamoyl-benzoylamino)-benzol]	6.7	–
COC(=O)c1ccc(NS(=O)(=O)c2ccc(OC)cc2)c(NC(=O)c2ccc(C(N)=S)cc2)c1 [Beispiel 7, 4-(4-Methoxy-benzolsulfonylamino)-3-(4-thiocarbamoyl-benzoylamino)-benzoesäuremethylester]	0.8	–
